# Results as given in US20230227449A1, “AMIDOPYRIMIDONE DERIVATIVES” (Hoffmann-La Roche Inc., priority 2020, published 2023).
# pIC50: −log10 of the molar value. Structures can show the parent of a compound that is named as a salt.
# Molecular target: Recombinant human Mat2a (Homo sapiens, UniProt P31153)
# Assay: Determination of Mat2A activity (384 well absorbance-based assay, Biomol Green)
# Assay type: biochemical
# Settings: 12.5 nM Mat2A, 100 μM ATP and Methionine, 2% DMSO, 120 minutes at RT, absorbance at 635 nm
# Experimental: Determination of Mat2A activity
# Measurement of Mat2A inhibition is performed in 384 well format absorbance-based assay. Recombinant human Mat2a (12.5 nM) and serial diluted compounds in DMSO (range of concentrations from […] to 508 pM) or controls (DMSO) are incubated for 15 minutes at room temperature (RT) in assay buffer containing 50 mM HEPES pH 7.5, 50 mM KCl, 50 mM MgCl2, 0.01% Tween 20 and 10 mM DTT. The reaction is initiated by the addition of the combined substrates ATP and Methionine, each at a final concentration of 100 μM. Final assay condition are 12.5 nM Mat2A, 100 μM ATP and Methionine Substrates and 2% DMSO. After 120 minutes of incubation at RT, the reaction is stopped by the addition of Biomol Green. The absorbance signal is measured at λ=635 nm with a multiplate reader (BMG Pherastar reader or equivalent) after 30 min of equilibration at RT.
# Sequence of Recombinant human Mat2a (P31153 whole entry): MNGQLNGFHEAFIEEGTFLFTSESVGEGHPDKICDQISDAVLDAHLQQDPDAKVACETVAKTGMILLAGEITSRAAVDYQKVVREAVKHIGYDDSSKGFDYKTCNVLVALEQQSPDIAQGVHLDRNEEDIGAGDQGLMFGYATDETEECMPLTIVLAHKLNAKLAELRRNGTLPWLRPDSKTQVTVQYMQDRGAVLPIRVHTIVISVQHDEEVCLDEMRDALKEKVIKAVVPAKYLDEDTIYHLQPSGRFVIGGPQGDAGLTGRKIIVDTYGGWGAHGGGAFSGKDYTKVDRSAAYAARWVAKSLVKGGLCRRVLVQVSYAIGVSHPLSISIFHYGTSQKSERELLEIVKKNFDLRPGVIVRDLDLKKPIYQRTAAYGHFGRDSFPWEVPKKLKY
structure (smiles),measurement,value
"Nc1nc(=O)n(-c2cccnc2C(F)(F)F)c2nc(C3CC3)ccc12 [Example 43, 4-amino-7-cyclopropyl-1-(2-(trifluoromethyl)pyridin-3-yl)pyrido[2,3-d]pyrimidin-2(1H)-one]",pIC50,> 7.89
"Cn1nccc1-n1c(=O)nc(N)c2ccc(C3CC3)nc21 [Example 44, 4-amino-7-cyclopropyl-1-(2-methylpyrazol-3-yl)pyrido[2,3-d]pyrimidin-2-one]",pIC50,> 7.89
"Nc1nc(=O)n(-c2cccc3c2CCO3)c2cc(C3CC3)ccc12 [Example 45, 4-amino-7-cyclopropyl-1-(2,3-dihydrobenzofuran-4-yl)quinazolin-2(1H)-one]",pIC50,> 7.89
"Nc1nc(=O)n([C@@H]2CCCOC2)c2cc(C(F)(F)F)ccc12 [Example 46, (R)-4-amino-1-(tetrahydro-2H-pyran-3-yl)-7-(trifluoromethyl)quinazolin-2(1H)-one]",pIC50,7.51
"Cc1ccncc1-n1c(=O)nc(N)c2ccc(C3CC3)nc21 [Example 47, 4-amino-7-cyclopropyl-1-(4-methylpyridin-3-yl)pyrido[2,3-d]pyrimidin-2(1H)-one]",pIC50,> 7.89
"CCc1ccc2c(N)nc(=O)n(-c3cccnc3C)c2c1 [Example 48, 4-amino-7-ethyl-1-(2-methylpyridin-3-yl)quinazolin-2(1H)-one]",pIC50,> 7.89
"Cc1ncoc1-n1c(=O)nc(N)c2ccc(C3CC3)nc21 [Example 50, 4-amino-7-cyclopropyl-1-(4-methyloxazol-5-yl)pyrido[2,3-d]pyrimidin-2-one]",pIC50,7.72
"Cc1ncsc1-n1c(=O)nc(N)c2ccc(C3CC3)nc21 [Example 51, 4-amino-7-cyclopropyl-1-(4-methylthiazol-5-yl)pyrido[2,3-d]pyrimidin-2-one]",pIC50,> 7.89
"Cc1ccccc1-n1c(=O)nc(N)c2cnc(C3CC3)cc21 [Example 52, 4-amino-7-cyclopropyl-1-(o-tolyl)pyrido[4,3-d]pyrimidin-2(1H)-one]",pIC50,7.37
"Cc1ncccc1-n1c(=O)nc(N)c2ccc(C3CCC3)nc21 [Example 53, 4-amino-7-cyclobutyl-1-(2-methyl-3-pyridyl)pyrido[2,3-d]pyrimidin-2-one]",pIC50,> 7.89
"COc1ncccc1-n1c(=O)nc(N)c2ccc(C3CCCCO3)nc21 (stereo not drawn) [Example 54, 4-amino-1-(2-methoxy-3-pyridyl)-7-tetrahydropyran-2-yl-pyrido[2,3-d]pyrimidin-2-one]",pIC50,6.85
"Cc1ncncc1-n1c(=O)nc(N)c2ccc(C3CCCC3)nc21 [Example 55, 4-amino-7-cyclopentyl-1-(4-methylpyrimidin-5-yl)pyrido[2,3-d]pyrimidin-2-one]",pIC50,7.77
"Cc1ncccc1-n1c(=O)nc(N)c2ccc(C3CCCC3)nc21 [Example 56, 4-amino-7-cyclopentyl-1-(2-methyl-3-pyridyl)pyrido[2,3-d]pyrimidin-2-one]",pIC50,> 7.89
"Cc1ncccc1-n1c(=O)nc(N)c2ccc(C(C)(C)F)cc21 [Example 58, 4-amino-7-(2-fluoropropan-2-yl)-1-(2-methylpyridin-3-yl)quinazolin-2-one]",pIC50,7.66
"Cc1ncccc1-n1c(=O)nc(N)c2c(F)cc(C(F)(F)F)cc21 [Example 59, 4-amino-5-fluoro-1-(2-methylpyridin-3-yl)-7-(trifluoromethyl)quinazolin-2 (1H)-one]",pIC50,7.85
"COc1nccc(F)c1-n1c(=O)nc(N)c2ccc(C3CC3)nc21 [Example 60, 4-amino-7-cyclopropyl-1-(4-fluoro-2-methoxypyridin-3-yl)pyrido[2,3-d]pyrimidin-2(1H)-one]",pIC50,7.70
"CCn1nccc1-n1c(=O)nc(N)c2ccc(C3CC3)nc21 [Example 61, 4-amino-7-cyclopropyl-1-(1-ethyl-1H-pyrazol-5-yl)pyrido[2,3-d]pyrimidin-2(1H)-one]",pIC50,> 7.89
"Cc1ccccc1-n1c(=O)nc(N)c2ccc(Cl)nc21 [Example 62, 4-amino-7-chloro-1-(o-tolyl)pyrido[2,3-d]pyrimidin-2(1H)-one]",pIC50,7.70
"Nc1nc(=O)n(-c2cccc3c2OCC3)c2nc(C3CC3)ccc12 [Example 63, 4-amino-7-cyclopropyl-1-(2,3-dihydrobenzofuran-7-yl)pyrido[2,3-d]pyrimidin-2(1H)-one]",pIC50,7.82
"Nc1nc(=O)n(-c2ccccc2Cl)c2nc(C3CC3)ccc12 [Example 64, 4-amino-1-(2-chlorophenyl)-7-cyclopropylpyrido[2,3-d]pyrimidin-2-one]",pIC50,> 7.89
"COc1c(C#N)cccc1-n1c(=O)nc(N)c2cc(Cl)c(C3CC3)nc21 [Example 65, 3-(4-amino-6-chloro-7-cyclopropyl-2-oxopyrido[2,3-d]pyrimidin-1(2H)-yl)-2-methoxybenzonitrile]",pIC50,7.74
"COc1ncccc1-n1c(=O)nc(N)c2cc(Cl)c(C3CC3)nc21 [Example 66, 4-amino-6-chloro-7-cyclopropyl-1-(2-methoxypyridin-3-yl)pyrido[2,3-d]pyrimidin-2(1H)-one]",pIC50,7.89
"Cc1cc(F)ccc1-n1c(=O)nc(N)c2ccc(C3CC3)nc21 [Example 67, 4-amino-7-cyclopropyl-1-(4-fluoro-2-methylphenyl)pyrido[2,3-d]pyrimidin-2-one]",pIC50,7.74
"CCc1cccc(-n2c(=O)nc(N)c3ccc(C4CC4)nc32)c1 [Example 68, 4-amino-7-cyclopropyl-1-(3-ethylphenyl)pyrido[2,3-d]pyrimidin-2(1H)-one]",pIC50,> 7.89
"Cc1cccc(-n2c(=O)nc(N)c3ccc(C4CC4)nc32)c1 [Example 69, 4-amino-7-cyclopropyl-1-(m-tolyl)pyrido[2,3-d]pyrimidin-2(1H)-one]",pIC50,> 7.89
"Nc1nc(=O)n(-c2cc(F)cc(F)c2)c2nc(C3CC3)ccc12 [Example 70, 4-amino-7-cyclopropyl-1-(3,5-difluorophenyl)pyrido[2,3-d]pyrimidin-2(1H)-one]",pIC50,7.18
"COc1cccc(-n2c(=O)nc(N)c3ccc(C4CC4)nc32)c1 [Example 71, 4-amino-7-cyclopropyl-1-(3-methoxyphenyl)pyrido[2,3-d]pyrimidin-2(1H)-one]",pIC50,> 7.89
"COc1cccc(-n2c(=O)nc(N)c3ccc(C4CC4)nc32)n1 [Example 72, 4-amino-7-cyclopropyl-1-(6-methoxypyridin-2-yl)pyrido[2,3-d]pyrimidin-2(1H)-one]",pIC50,> 7.89
"Nc1nc(=O)n(-c2cccc(F)c2F)c2nc(C3CC3)ccc12 [Example 73, 4-amino-7-cyclopropyl-1-(2,3-difluorophenyl)pyrido[2,3-d]pyrimidin-2(1H)-one]",pIC50,> 7.89
"Nc1nc(=O)n(-c2ccccc2)c2nc(C3CC3)ccc12 [Example 74, 4-amino-7-cyclopropyl-1-phenylpyrido[2,3-d]pyrimidin-2(1H)-one]",pIC50,7.80
"C[C@H](c1cnco1)n1c(=O)nc(N)c2ccc(C3CC3)nc21 [Example 75, 4-amino-7-cyclopropyl-1-(1-(oxazol-5-yl)ethyl)pyrido[2,3-d]pyrimidin-2(1H)-one]",pIC50,7.00
"Cc1c(C#N)cccc1-n1c(=O)nc(N)c2ccc(C(F)(F)F)cc21 [Example 76, 3-(4-amino-2-oxo-7-(trifluoromethyl)quinazolin-1(2H)-yl)-2-methylbenzonitrile]",pIC50,> 7.89
"Cc1c(C#N)cccc1-n1c(=O)nc(N)c2ccc(C(F)(F)F)nc21 [Example 77, 3-(4-amino-2-oxo-7-(trifluoromethyl)pyrido[2,3-d]pyrimidin-1(2H)-yl)-2-methylbenzonitrile]",pIC50,> 7.89
"Nc1nc(=O)n(-c2c(F)cccc2F)c2nc(C3CC3)ccc12 [Example 78, 4-amino-7-cyclopropyl-1-(2,6-difluorophenyl)pyrido[2,3-d]pyrimidin-2(1H)-one]",pIC50,> 7.89
"Nc1nc(=O)n(-c2ccccc2F)c2nc(C3CC3)ccc12 [Example 79, 4-amino-7-cyclopropyl-1-(2-fluorophenyl)pyrido[2,3-d]pyrimidin-2(1H)-one]",pIC50,> 7.89
"Nc1nc(=O)n(-c2cccc(F)c2)c2nc(C3CC3)ccc12 [Example 80, 4-amino-7-cyclopropyl-1-(3-fluorophenyl)pyrido[2,3-d]pyrimidin-2(1H)-one]",pIC50,> 7.89
"CC(C1COC1)n1c(=O)nc(N)c2ccc(C3CC3)nc21 (stereo not drawn) [Example 81, 4-amino-7-cyclopropyl-1-[1-(oxetan-3-yl)ethyl]pyrido[2,3-d]pyrimidin-2-one]",pIC50,7.38
"CC(c1ccccn1)n1c(=O)nc(N)c2ccc(C3CC3)nc21 (stereo not drawn) [Example 82, 4-amino-7-cyclopropyl-1-(1-pyridin-2-ylethyl)pyrido[2,3-d]pyrimidin-2-one]",pIC50,7.44
"Cc1ncccc1-n1c(=O)nc(N)c2ccc(CC(F)(F)F)cc21 [Example 83, 4-amino-1-(2-methyl-3-pyridyl)-7-(2,2,2-trifluoroethyl)quinazolin-2-one hydrochloride]",pIC50,7.49
"Nc1nc(=O)n(C2CCOCC2)c2nc(C3CC3)ccc12 [Example 84, 4-amino-7-cyclopropyl-1-(tetrahydro-2H-pyran-4-yl)pyrido[2,3-d]pyrimidin-2(1H)-one]",pIC50,6.68
"Nc1nc(=O)n(-c2cccnc2Cl)c2nc(C3CC3)ccc12 [Example 85, 4-amino-1-(2-chloropyridin-3-yl)-7-cyclopropylpyrido[2,3-d]pyrimidin-2(1H)-one]",pIC50,> 7.89
"Cc1ncccc1-n1c(=O)nc(N)c2ccc(C3CC3)cc21 [Example 86, 4-amino-7-cyclopropyl-1-(2-methylpyridin-3-yl)quinazolin-2 (1H)-one]",pIC50,> 7.89
